Results as given in publication PMC6277767, “Broad and Region-Specific Impacts of the Synthetic Cannabinoid CP 55,940 in Adolescent and Adult Female Mouse Brains” (Frontiers in Molecular Neuroscience, 2018).

Tested on: CD1 female mouse brain lipidome
Test: Brain-region lipid levels (HPLC/MS/MS lipidomics) 2 h after single i.p. 3 mg/kg CP 55,940 vs vehicle
Type: in vivo
Protocol: The Bloomington Institutional Animal Care and Use Committee of Indiana University reviewed and approved the animal procedures. Female mice from the CD1 strain were utilized to match our study examining THC’s effects on the brain lipidome ([Leishman et al., 2018]). Mice were given a single i.p. injection of either 3 mg/kg CP or 1:1:18 cremophor:ethanol:saline vehicle (please refer to the section “3 mg/kg CP Is Relevant for Synthetic Cannabinoid Abuse and Has Stronger Effects on the Female Mouse Brain Lipidome During Adolescence” for a justification of dose and use of female mice). Three different age groups were given injections: PND 35 and PND 50 adolescents, and adult mice (PND 113). At least eight mice in each age group received CP and at least eight received vehicle. Matching the THC study time course ([Leishman et al., 2018]), mice were sacrificed via rapid decapitation 2 h after injection. Brains were immediately removed and flash-frozen in liquid nitrogen, and then stored at -80°C until dissections were performed. Brains were dissected on an ice-cold dissection plate into the following regions: STR, HIPP, CER, THAL, CTX, HYP, MID, and STEM. These abbreviations for these brain areas will be used exclusively when discussing the results generated by these specific dissections. Each dissected area was immediately placed in liquid nitrogen and then stored at -80°C until used for lipid extraction.
Tissue extracts were performed as previously described ([Bradshaw et al., 2006]; [Stuart et al., 2013]; [Raboune et al., 2014]; [Leishman et al., 2016a],[b], [2017], [2018]). First, samples were shock frozen in liquid nitrogen, weighed, and transferred to a centrifuge tube. The mass of the largest sample was multiplied by 50 to determine how many milliliters of HPLC-grade methanol (Fisher, Fair Lawn, NJ, United States) to add. Then, samples were spiked with 500 pmol deuterium-labeled NAGly (d8NAGly; Cayman Chemical, Ann Arbor, MI, United States). Samples were placed on ice in darkness for 2 h then individually homogenized and centrifuged at 19,000 × g for 20 min at 20°C. Supernatants were diluted with HPLC water (purified in house) to make a solution of 75% water, 25% supernatant. Lipids were partially purified on C18 solid phase extraction columns (Agilent, Palo Alto, CA, United States). A series of four elutions with 1.5 mL of 60%, 75%, 85%, and 100% methanol were collected ([Stuart et al., 2013]; [Leishman et al., 2016a],[b], [2018]).
As previously described ([Bradshaw et al., 2006]; [Tan et al., 2006]; [Smoum et al., 2010]; [Stuart et al., 2013]; [Tortoriello et al., 2013]; [Raboune et al., 2014]; [Leishman et al., 2016a],[b], [2017], [2018]), samples were analyzed using an Applied Biosystems API 3000 triple quadrupole mass spectrometer with electrospray ionization (Foster City, CA, United States). Using an Agilent XDB-C18 reversed phase analytical column and optimized mobile phase gradients, 20 μL from each elution were chromatographed. Two Shimadzu 10ADvp pumps (Columbia, MD, United States) provided the pressure for gradient elution. Mobile phase A: 20% methanol, 80% water (v/v) and 1 mM ammonium acetate (Sigma, St. Louis, MO, United States). Mobile phase B: 100% methanol, 1 mM ammonium acetate. Every method run began with 0% mobile phase B, reached 100% mobile phase B flowing at 0.2 mL/min, and gradually returned to 0% mobile phase B.
This screening library will be referred to as the lipidome when discussing data from this study. HPLC/MS/MS data were analyzed using Analyst software (Applied Biosystems) ([Bradshaw et al., 2006]; [Tan et al., 2006]; [Stuart et al., 2013]; [Tortoriello et al., 2013]; [Raboune et al., 2014]; [Leishman et al., 2016a],[b], [2017], [2018]). Chromatograms (Supplementary Figure 3) were generated by determining the retention time of analytes from the analytical column with a [M-1] or [M+1] parent peak and a fragmentation peak corresponding to the programmed values. […]

[1] = adult brainstem, 3mg/kg CP 55,940
[2] = adult cortex, 3 mg/kg CP 55,940, p .004
[3] = adult cortex, 3 mg/kg CP 55,940, p .008
[4] = adult cortex, 3 mg/kg CP 55,940, p .028
[5] = adult cortex, 3 mg/kg CP 55,940, p .055
[6] = adult cortex, 3 mg/kg CP 55,940, p .057
[7] = adult cortex, 3 mg/kg CP 55,940, p .077
[8] = adult cortex, 3 mg/kg CP 55,940, p .086
[9] = adult cortex, 3 mg/kg CP 55,940, p .090
[10] = adult female mice, brainstem, 3mg/kg CP 55,940

CCCCCCC(C)(C)c1ccc([C@@H]2C[C@H](O)CC[C@H]2CCCO)c(O)c1 [CP 55,940]
N-docosahexaenoyl alanine level, Mean [1]: 3.28E-13
N-docosahexaenoyl ethanolamine level, Mean [1]: 2.85E-11
N-docosahexaenoyl glycine level, Mean [1]: 5.52E-13
N-docosahexaenoyl phenylalanine level, Mean [1]: 3.64E-14
N-linoleoyl GABA level, Mean [1]: 6.22E-12
N-linoleoyl alanine level, Mean [1]: 2E-13
N-linoleoyl ethanolamine level, Mean [1]: 8.37E-12
N-linoleoyl glycine level, Mean [1]: 1.41E-13
N-linoleoyl methionine level, Mean [1]: BDL
N-oleoyl GABA level, Mean [1]: 1.65E-11
N-oleoyl alanine level, Mean [1]: 3.26E-12
N-oleoyl dopamine level, Mean [1]: BDL
N-oleoyl ethanolamine level, Mean [1]: 2.44E-10
N-oleoyl ethanolamine, Direction (relative to Veh) [1]: ↓
N-oleoyl ethanolamine, Magnitude (x Veh level) [1]: 0.76 x Veh level
N-oleoyl glycine level, Mean [1]: 2.1E-12
N-oleoyl leucine level, Mean [1]: 2E-12
N-oleoyl methionine level, Mean [1]: 4.11E-13
N-oleoyl phenylalanine level, Mean [1]: 4.28E-13
N-palmitoyl GABA level, Mean [1]: 1.95E-11
N-palmitoyl alanine level, Mean [1]: 3.16E-12
N-palmitoyl ethanolamine level, Mean [1]: 8.74E-11
N-palmitoyl glycine level, Mean [1]: 2.79E-12
N-palmitoyl leucine level, Mean [1]: 3.05E-12
N-palmitoyl leucine, Direction (relative to Veh) [1]: ↑
N-palmitoyl leucine, Magnitude (x Veh level) [1]: 1.30 x Veh level
N-palmitoyl methionine level, Mean [1]: 5.07E-12
N-palmitoyl phenylalanine level, Mean [1]: 2.38E-13
N-palmitoyl valine Direction (relative to Veh) [1]: ↑
N-palmitoyl valine Magnitude (x Veh level) [1]: 1.43 x Veh level
N-stearoyl GABA level, Mean [1]: 1.37E-11
N-stearoyl alanine level, Mean [1]: 5.4E-12
N-stearoyl ethanolamine level, Mean [1]: 3.01E-11
N-stearoyl glycine level, Mean [1]: 4.95E-12
N-stearoyl leucine level, Mean [1]: 1.96E-12
N-stearoyl methionine level, Mean [1]: 4.69E-13
N-stearoyl phenylalanine level, Mean [1]: 1.53E-13
Oleic acid, Direction (relative to Veh) [1]: ↓
Oleic acid, Magnitude (x Veh level) [1]: 0.80 x Veh level
PGE2 Direction (relative to Veh) [1]: ↓
PGE2 Magnitude (x Veh level) [1]: 0.87 x Veh level
2-arachidonoyl glycerol level, Mean (adult cortex, 3mg/kg CP 55,940): 3.28E-09
2-linoleoyl glycerol level, Mean (adult cortex, 3mg/kg CP 55,940): 1.48E-10
2-oleoyl glycerol level, Mean (adult cortex, 3mg/kg CP 55,940): 1.56E-09
2-palmitoyl glycerol level, Mean (adult cortex, 3mg/kg CP 55,940): 8.13E-11
6-ketoPGF1α level, Mean (adult cortex, 3mg/kg CP 55,940): 1.5E-11
11-OH-THC level, Mean (adult cortex, 3mg/kg CP 55,940): BDL
11-nor-9-carboxyTHC level, Mean (adult cortex, 3mg/kg CP 55,940): BDL
Arachidonic acid level, Mean (adult cortex, 3mg/kg CP 55,940): 9.03E-10
Cannabidiol level, Mean (adult cortex, 3mg/kg CP 55,940): BDL
Linoleic acid level, Mean (adult cortex, 3mg/kg CP 55,940): 5.34E-10
N- stearoyl valine level, Mean (adult cortex, 3mg/kg CP 55,940): 2.51E-14
N-arachidonoyl proline level, Mean (adult cortex, 3mg/kg CP 55,940): BDL
N-arachidonoyl taurine level, Mean (adult cortex, 3mg/kg CP 55,940): 8.95E-11
N-arachidonoyl tryptophan level, Mean (adult cortex, 3mg/kg CP 55,940): BDL
N-arachidonoyl tyrosine level, Mean (adult cortex, 3mg/kg CP 55,940): 6.06E-13
N-docosahexaenoyl proline level, Mean (adult cortex, 3mg/kg CP 55,940): BDL
N-docosahexaenoyl tryptophan level, Mean (adult cortex, 3mg/kg CP 55,940): BDL
N-docosahexaenoyl tyrosine level, Mean (adult cortex, 3mg/kg CP 55,940): 3.81E-13
N-linoleoyl proline level, Mean (adult cortex, 3mg/kg CP 55,940): BDL
N-linoleoyl serine level, Mean (adult cortex, 3mg/kg CP 55,940): 1.53E-11
N-linoleoyl tryptophan level, Mean (adult cortex, 3mg/kg CP 55,940): BDL
N-linoleoyl tyrosine level, Mean (adult cortex, 3mg/kg CP 55,940): BDL
N-nervonoyl valine level, Mean (adult cortex, 3mg/kg CP 55,940): BDL
N-oleoyl proline level, Mean (adult cortex, 3mg/kg CP 55,940): BDL
N-oleoyl serine level, Mean (adult cortex, 3mg/kg CP 55,940): 8.25E-11
N-oleoyl tryptophan level, Mean (adult cortex, 3mg/kg CP 55,940): BDL
N-oleoyl tyrosine level, Mean (adult cortex, 3mg/kg CP 55,940): 3.46E-13
N-oleoyl valine level, Mean (adult cortex, 3mg/kg CP 55,940): 1.3E-14
N-palmitoyl proline level, Mean (adult cortex, 3mg/kg CP 55,940): BDL
N-palmitoyl serine level, Mean (adult cortex, 3mg/kg CP 55,940): 6.45E-12
N-palmitoyl tryptophan level, Mean (adult cortex, 3mg/kg CP 55,940): BDL
N-palmitoyl tyrosine level, Mean (adult cortex, 3mg/kg CP 55,940): 7.95E-13
N-palmitoyl valine level, Mean (adult cortex, 3mg/kg CP 55,940): 1.13E-13
N-stearoyl proline level, Mean (adult cortex, 3mg/kg CP 55,940): BDL
N-stearoyl serine level, Mean (adult cortex, 3mg/kg CP 55,940): 9.84E-12
N-stearoyl tryptophan level, Mean (adult cortex, 3mg/kg CP 55,940): BDL
N-stearoyl tyrosine level, Mean (adult cortex, 3mg/kg CP 55,940): 1.21E-13
Oleic acid level, Mean (adult cortex, 3mg/kg CP 55,940): 4.6E-10
PGE2 level, Mean (adult cortex, 3mg/kg CP 55,940): 3.08E-10
PhosphoLEA level, Mean (adult cortex, 3mg/kg CP 55,940): 1.8E-12
THC level, Mean (adult cortex, 3mg/kg CP 55,940): BDL
6-ketoPGF1α Direction (relative to Veh) [2]: ↓
6-ketoPGF1α Magnitude (x Veh level) [2]: 0.68
N-palmitoyl valine Direction (relative to Veh) [3]: ↑
N-palmitoyl valine Magnitude (x Veh level) [3]: 1.49
PGF2α Direction (relative to Veh) [4]: ↓
PGF2α Magnitude (x Veh level) [4]: 0.89
N-linoleoyl GABA Direction (relative to Veh) [5]: ↓
N-linoleoyl GABA Magnitude (x Veh level) [5]: 0.86
N-stearoyl phenylalanine, Direction (relative to Veh) [6]: ↓
N-stearoyl phenylalanine, Magnitude (x Veh level) [6]: 0.66
Arachidonic acid, Direction (relative to Veh) [7]: ↓
Arachidonic acid, Magnitude (x Veh level) [7]: 0.86
N-arachidonoyl taurine Direction (relative to Veh) [8]: ↓
N-arachidonoyl taurine Magnitude (x Veh level) [8]: 0.93
2-linoleoyl glycerol Direction (relative to Veh) [9]: ↓
2-linoleoyl glycerol Magnitude (x Veh level) [9]: 0.76
2-arachidonoyl glycerol level, Mean [10]: 4.32E-09
2-linoleoyl glycerol level, Mean [10]: 2.54E-10
2-oleoyl glycerol level, Mean [10]: 3.17E-09
2-palmitoyl glycerol level, Mean [10]: 3.83E-11
